According to patent US7491796B1, “Retro-inversion peptides that target GIT receptors and related methods” (Merrion Research III Limited, priority 1998, dated 2009):
Where no end group is shown, it is not given here. The star is where a group is joined. Dansyl = CN(C)c1cccc2c(S(=O)(=O)*)cccc12

Tested on: Caco-2 cell membrane (P100) fractions
Assay: Binding of dansylated peptides to Caco-2 cell membrane (P100) fractions by ELISA
Details: for Kd: Caco-2 P100 fractions, ELISA, read-out: KD (concentration of the peptide required to reach half maximal binding to Caco-2 P100 fractions); for Binding to P100 relative to ZElan021 (arbitrary value 1.00), P100 assay number 4: assay 4; for Binding to P100 relative to ZElan021 (arbitrary value 1.00), P100 assay number 4 / Binding to P100 relative to ZElan021 (arbitrary value 1.00), P100 assay number 5 / Binding to P100 relative to ZElan021 (arbitrary value 1.00), P100 assay number 6 / Binding to P100 relative to ZElan021 (arbitrary value 1.00), P100 assay number 7 / Binding to P100 relative to ZElan021 (arbitrary value 1.00), P100 assay number 8: peptide at 25 μg/ml; for Binding to P100 relative to ZElan021 (arbitrary value 1.00), P100 assay number 5: assay 5; for Binding to P100 relative to ZElan021 (arbitrary value 1.00), P100 assay number 6: assay 6; for Binding to P100 relative to ZElan021 (arbitrary value 1.00), P100 assay number 7: assay 7; for Binding to P100 relative to ZElan021 (arbitrary value 1.00), P100 assay number 8: assay 8
Protocol: Similar to the methods described in the above-referenced WO 98/51325, Caco-2 cell membrane (P100) and cytosolic (S100) fractions were prepared using a modification of the method described in Kinsella, B. T., O'Mahony, D. J. and G. A. FitzGerald, 1994, J. Biol. Chem. 269(47): 29914-29919. Confluent Caco-2 cell monolayers (grown in 75 cm^2 flasks for up to 1 week at 37° C. and 5% CO2) were washed twice in Dulbecco's PBS (DPBS) and the cells were harvested by centrifugation at 1000 rpm after treatment with 10 mM EDTA-DPBS. The cells were washed 3 times in DPBS and the final cell pellet was resuspended in 3 volumes of ice cold HED buffer (20 mM HEPES (pH 7.67), 1 mM EGTA, 0.5 mM dithiothreitol, 1 mM phenylmethylsulphonyl fluoride (PMSF)). The cells were allowed to swell for 5 min on ice prior to homogenization for 30 sec. The homogenates were centrifuged at 40,000 rpm for 45 min at 4° C. The supernatant (S100) was removed and the pellet (P100) was resuspended in HEDG buffer (20 mM HEPES (pH 7.67), 1 mM EGTA, 0.5 mM dithiothreitol, 100 mM NaCl, 10% glycerol, 1 mM PMSF). Protein concentrations were determined using the Bradford assay (Bradford, M. M., 1976, Anal. Biochem. 72: 248-254).
Binding of peptides to membrane (P100) was assessed by detection of the dansyl moiety incorporated in the peptide. Costar ninety six well ELISA plates were coated with P100 fractions (100 μg/ml in 0.05 M NaHCO3 (pH 9.6); 100 μl/well) overnight at 4° C. The plates were blocked with 2% Marvel-DPBS for 1 h at room temperature and washed 3 times in 1% DPBS-Tween. Peptides (200 μg/ml in 2% Marvel-DPBS) were serially diluted on the plates and incubated for 1 h at room temperature. The plates were washed 5 times and the dansylated peptides were detected using i) mouse anti-dansyl antiserum (Cytogen DB3-226.3; 1:1340 dilution in 2% Marvel-DPBS) or ii) rabbit anti-dansyl antiserum (La Jolla Diagnostics LAJD-119; 1:1000 dilutions) for 1 h at room temperature. The plates were washed 3 times prior to incubation with i) goat anti-mouse IgGλ:HRP antibody (Southern Biotechnology 1060-05; 1:10,000 dilution in 2% Marvel-DPBS) or ii) anti-rabbit IgG HRP (Sigma A-0545, 1:8,000) for 1 h at room temperature. After 3 washes, reactions were visualized using K Blue Substrate and Red Stop Solution (Neogen Co. 300176 & 301475, respectively) at 650 nm.
ZElan021, full length HAX42 [K(dns)-[…]] (SEQ ID NO:53; dansylated version is SEQ ID NO:8) was given the arbitrary value of 1.00 for binding to P100 at a given peptide concentration determined from the signal-to-noise ratio data. […] Assay number 1 was at 20 μg/ml; 2 and 3 were at 50 μg/ml; and 4 through 8 were at 25 μg/ml.
KD values, or the concentration of the peptide required to reach half maximal binding to Caco-2 P100 fractions, are given in Table 3 for ZElan021, full length HAX42, [K(dns)-[…]] (SEQ ID NO:53; dansylated version is SEQ ID NO:8), HAX42 fragment ZElan091, and the retro-inverted form of this fragment, ZElan146 as well as for ZElan018, full length PAX2, [K(dns)-STPPSREAYSRPYSVDS […]] (SEQ ID NO:7; dansylated version is SEQ ID NO:15), PAX2 fragment ZElan129, and the retro-inverted form of this fragment, ZELan144.

Substance | Kd [µM] | Binding to P100 relative to ZElan021 (arbitrary value 1.00), P100 assay number 4 | Binding to P100 relative to ZElan021 (arbitrary value 1.00), P100 assay number 5 | Binding to P100 relative to ZElan021 (arbitrary value 1.00), P100 assay number 6 | Binding to P100 relative to ZElan021 (arbitrary value 1.00), P100 assay number 7 | Binding to P100 relative to ZElan021 (arbitrary value 1.00), P100 assay number 1 (assay 1, peptide at 20 μg/ml) | Binding to P100 relative to ZElan021 (arbitrary value 1.00), P100 assay number 2 (assay 2, peptide at 50 μg/ml) | Binding to P100 relative to ZElan021 (arbitrary value 1.00), P100 assay number 3 (assay 3, peptide at 50 μg/ml) | Binding to P100 relative to ZElan021 (arbitrary value 1.00), P100 assay number 8
K(dns)-PGDYNCCGNGNSTG [ZElan091] | 0.75 | 2.02 | 1.37 | 1.20 | 0.85 | – | – | – | –
K(dns)-SDHALGTNLRSDNAKEPGDYNCCGNGNSTGRKVFNRRRPSAIPT (K(Dansyl)SDHALGTNLRSDNAKEPGDYNCCGNGNSTGRKVFNRRRPSAIPT; cysteine pairing not given here) [ZElan021, dansylated full length HAX42] | 6.7 | 1.00 | 1.00 | 1.00 | 1.14 | 1.00 | 1.00 | 1.00 | 0.94
K(dns)-STPPSREAYSRPYSVDS DSDTNAKHSSHNRRLRTRSRPNG (K(Dansyl)STPPSREAYSRPYSVDSDSDTNAKHSSHNRRLRTRSRPNG) [ZElan018, dansylated full length PAX2] | > 50 | – | – | – | – | – | – | – | –
K(dns)-TNAKHSSHNRRLRTR (K(Dansyl)TNAKHSSHNRRLRTR) [ZElan129, dansylated PAX2 15 mer fragment] | 29.6 | – | – | – | – | – | – | – | –
K(dns)-gtsngngccnydgp [ZElan146] | 21.7 | – | – | – | 0.36 | – | – | – | 0.72
K(dns)-rtrlrrnhsshkant [ZElan144] | 28.8 | – | – | – | – | – | – | – | –
